Measured values from ChEMBL document CHEMBL5154849, “Overcoming undesirable hERG affinity by incorporating fluorine atoms: A case of MAO-B inhibitors derived from 1 H-pyrrolo-[3,2-c]quinolines” (Eur J Med Chem, 2022).

Assay: in vitro
Settings: rat, liver microsomes

Q: For `COc1cccc(Cn2ccc3c(N4CCC(F)(F)CC4)nc4ccccc4c32)c1`, which CLint scaled at 10 µM is on record?
A: The CLint scaled at 10 µM was 43 mL/min/kg.
